Values quoted from earlier work in EP0409903B1, “PROCESS FOR PREPARING POLYUNSATURATED FATTY ACIDS” (STAROIL LIMITED, priority 1988, dated 1989).

Settings: ingestion of DHA in ester form and/or as the free acid; Hiroi at al., 1978

CC/C=C\C/C=C\C/C=C\C/C=C\C/C=C\C/C=C\CCC(=O)O [DHA, docosahexaenoic acid]
DHA and EPA levels in plasmatic phospholipids: significantly increases
